Test results published in article PMC7838189, “Natural podophyllotoxin analog 4DPG attenuates EMT and colorectal cancer progression via activation of checkpoint kinase 2” (Cell Death Discovery, 2021).

Legend:
[1] = test system: RBCs; assay: In vitro hemolysis assay; assay type: cell-based; conditions: 20 µg/mL (highest tested concentration), 1 h incubation
Method: Solubility and distribution coefficient are among the major physicochemical properties of a drug that greatly determine its absorption in physiological compartments. […] The distribution coefficient (logD, pH 7.4) of 4DPG was determined to be 0.815 ± 0.19, which indicates the slightly lipophilic nature of the molecule. For administration to animals, the appropriate quantity of 4DPG was formulated in the pre-calculated volume of saline with the help of a solubilizer (Tween-80). Next, to assess the hemocompatibility of 4DPG and establish if the compound could be considered safe for intravenous (i.v.) administration, we performed in vitro hemolysis assay by incubating the RBCs with increasing concentrations of the molecule.
The distribution coefficient, solubility, and hemocompatibility of 4DPG was determined adopting our previously described protocol[37],[40]. For hemolysis assay, increasing concentrations (5, 10, and 20 µg/mL) of 4DPG were employed. Distilled water (DW) and PBS were considered as […].
Supplementary Figure S4. Hemocompatibility and exposure of 4DPG. (A) Representative images of RBC suspension incubated with distilled water (negative control), PBS (positive control), and increasing concentrations of 4DPG for 1 h. (B) Quantification of hemolysis in above treatment conditions by measuring the optical density at 540 nm. […]

[2] = test system: tumor tissues of orthotopic rat colorectal carcinoma; assay: Immunohistochemical analysis of tumor tissues; assay type: in vivo, Wistar rats; conditions: 25 mg/kg, vs saline-treated group
Method: The procedure was performed following our pre-standardized protocol with minor modifications. Paraffin-embedded tissue sections were prepared from the tumors of saline, 5-FU, and 4DPG-treated groups of animals. Primary antibodies used: p-Chk2 (T68), Chk2, p53, p-Vimentin (S38) and Vimentin at 1:150 dilution for overnight at 4 °C.

[3] = test system: Vimentin–p53 association in SW-620/5-FU-R cells; assay: Immunoprecipitation of Vimentin and p53; assay type: cell-based; conditions: 300 nM, 48 h, vs ample p53 in vehicle
Method: Fig. 3 Chk2-dependent role of 4DPG in modulating p53 and repressing Vimentin expression in 5-FU-R cells. A Immunocytochemistry results showing the Vimentin expression level in SW-620/5-FU-R cells treated/transfected with scramble, SiChk2, scramble plus 4DPG, SiChk2 plus 4DPG, vehicle, PV1019, 4DPG, and PV1019 plus 4DPG for 48 h. Scale bars: 50 µm. […] C Matrigel invasion assay results showing invaded HCT-116/5-FU-R and SW-620/5-FU-R cells following 48 h of transient transfection with GFP and GFP-Chk2 plasmid construct. Scale bars: 50 µm. D Quantification of the number of invaded cells per field from the above experimental conditions. n = 3, error bars, mean ± SD; *P < 0.05, ***P < 0.001. E Immunocytochemistry results displaying Vimentin expression levels in HCT-116/5-FU-R and SW-620/5-FU-R cells after 48 h of transient transfection with pCDNA3 and/or HA-Chk2 plasmid construct. Scale bars: 50 µm. F Immunoprecipitation with Vimentin or p53 followed by western blotting analysis of p53 in SW-620/5-FU-R cells treated with vehicle and/or 4DPG (300 nM) for 48 h. […]
For immunoprecipitation analysis, the previously described procedure was followed with minor modification. […] Following careful washing with lysis buffer, the immunoprecipitates were analyzed by western blotting.

COc1cc([C@@H]2c3cc4c(cc3C[C@H]3COC(=O)[C@@H]32)OCO4)cc(OC)c1O[C@@H]1O[C@H](CO)[C@@H](O)[C@H](O)[C@H]1O [4DPG, 4′-demethyl-deoxypodophyllotoxin glucoside]
hemolysis [1]: 5.8% | p-Vimentin (ser38) and Vimentin expression levels in tumor tissues (immunohistochemistry) [2]: decreased | protein levels of p-Chk2 (Thr68) and p53 in tumor tissues (immunohistochemistry) [2]: marked increase | p53 detected in Vimentin pull-down lysates [3]: negligible p53 expression
